Assay results from BindingDB's records for doi:10.7270/Q2NZ862K (Nmmlsc, 2007).

Target: T1, fMet-Leu-Phe receptor (Homo sapiens, UniProt P21462)
T1 sequence (P21462 whole entry): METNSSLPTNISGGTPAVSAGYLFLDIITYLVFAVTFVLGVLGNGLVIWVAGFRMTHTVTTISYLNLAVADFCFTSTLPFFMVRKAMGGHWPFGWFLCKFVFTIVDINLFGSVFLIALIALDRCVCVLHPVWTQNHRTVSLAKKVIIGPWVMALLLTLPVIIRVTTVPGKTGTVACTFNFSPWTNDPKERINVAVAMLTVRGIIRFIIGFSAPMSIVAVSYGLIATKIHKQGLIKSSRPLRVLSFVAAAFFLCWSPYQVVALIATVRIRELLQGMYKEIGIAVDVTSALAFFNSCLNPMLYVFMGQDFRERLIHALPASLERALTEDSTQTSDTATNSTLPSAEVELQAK
Experiment: formyl peptide receptor binders – dose response (AID 519)

| SMILES | Ki [µM] |
| --- | --- |
| Cc1cc(N2C(=O)C(=O)C(C(=O)c3ccco3)C2c2cccnc2)no1 (stereo not given) [3-(furan-2-carbonyl)-4-hydroxy-1-(5-methyl-1,2-oxazol-3-yl)-2-pyridin-3-yl-2H-pyrrol-5-one] | > 43.7 |
| C=CCOc1ccc(C2C(C(=O)c3ccco3)C(=O)C(=O)N2Cc2cccnc2)cc1 (stereo not given) [3-(furan-2-carbonyl)-4-hydroxy-2-(4-prop-2-enoxyphenyl)-1-(pyridin-3-ylmethyl)-2H-pyrrol-5-one] | 6.4 |
| CCCOc1ccc(C2C(C(=O)c3ccc(C)o3)C(=O)C(=O)N2Cc2cccnc2)cc1 (stereo not given) [3-(5-methylfuran-2-yl)carbonyl-4-oxidanyl-2-(4-propoxyphenyl)-1-(pyridin-3-ylmethyl)-2H-pyrrol-5-one] | 27.9 |
| COc1ccc(C2C(C(=O)c3ccccc3)C(=O)C(=O)N2CC(C)O)c(OC)c1 (stereo not given) [(4Z)-5-(2,4-dimethoxyphenyl)-4-[hydroxy(phenyl)methylene]-1-(2-hydroxypropyl)pyrrolidine-2,3-quinone] | 25.3 |
| CCOc1cccc(C(=O)C2C(=O)C(=O)N(CCOC)C2c2ccc(C)o2)c1 (stereo not given) [(4Z)-4-[(3-ethoxyphenyl)-hydroxymethylidene]-1-(2-methoxyethyl)-5-(5-methyl-2-furanyl)pyrrolidine-2,3-dione] | 8.8 |
| COCCCN1C(=O)C(=O)C(C(=O)c2ccco2)C1c1ccccc1 (stereo not given) [3-(furan-2-carbonyl)-4-hydroxy-1-(3-methoxypropyl)-2-phenyl-2H-pyrrol-5-one] | 9.5 |
| COCCN1C(=O)C(=O)C(C(=O)c2cccs2)C1c1ccccc1 (stereo not given) [1-(2-methoxyethyl)-4-oxidanyl-2-phenyl-3-thiophen-2-ylcarbonyl-2H-pyrrol-5-one] | > 43.7 |
| COc1ccc(C2C(C(=O)c3cccs3)C(=O)C(=O)N2c2nnc(C)s2)cc1OC (stereo not given) [2-(3,4-dimethoxyphenyl)-1-(5-methyl-1,3,4-thiadiazol-2-yl)-4-oxidanyl-3-thiophen-2-ylcarbonyl-2H-pyrrol-5-one] | > 43.7 |
| Cc1ccc(C(=O)C2C(=O)C(=O)N(CCCn3ccnc3)C2c2ccc(OC(C)C)cc2)o1 (stereo not given) [1-(3-imidazol-1-ylpropyl)-3-(5-methylfuran-2-yl)carbonyl-4-oxidanyl-2-(4-propan-2-yloxyphenyl)-2H-pyrrol-5-one] | > 43.7 |
| COc1ccc(OC)c(C2C(C(=O)c3cccs3)C(=O)C(=O)N2c2cc(C)on2)c1 (stereo not given) [2-(2,5-dimethoxyphenyl)-1-(5-methyl-1,2-oxazol-3-yl)-4-oxidanyl-3-thiophen-2-ylcarbonyl-2H-pyrrol-5-one] | > 43.7 |
| Cc1ccc(C2C(C(=O)c3sc(C)nc3C)C(=O)C(=O)N2CCN2CCOCC2)o1 (stereo not given) [3-(2,4-dimethyl-1,3-thiazole-5-carbonyl)-4-hydroxy-2-(5-methylfuran-2-yl)-1-(2-morpholin-4-ylethyl)-2H-pyrrol-5-one] | > 43.7 |
| O=C1C(=O)N(c2ncccn2)C(c2cccc(Cl)c2)C1C(=O)c1ccco1 (stereo not given) [2-(3-chlorophenyl)-3-(furan-2-carbonyl)-4-hydroxy-1-pyrimidin-2-yl-2H-pyrrol-5-one] | > 43.7 |
| CCOc1ccc(C2C(C(=O)c3ccco3)C(=O)C(=O)N2CCCn2ccnc2)cc1 (stereo not given) [2-(4-ethoxyphenyl)-3-(furan-2-carbonyl)-4-hydroxy-1-(3-imidazol-1-ylpropyl)-2H-pyrrol-5-one] | 6.4 |
| CCOc1ccc(C(=O)C2C(=O)C(=O)N(CC3CCCO3)C2c2ccc(C)o2)cc1 (stereo not given) [(4Z)-4-[(4-ethoxyphenyl)-hydroxymethylidene]-5-(5-methyl-2-furanyl)-1-(2-oxolanylmethyl)pyrrolidine-2,3-dione] | 13.8 |
| Cc1ccc(C(=O)C2C(=O)C(=O)N(CCN3CCOCC3)C2c2cccnc2)cc1 (stereo not given) [(4Z)-4-[(4-methylphenyl)-oxidanyl-methylidene]-1-(2-morpholin-4-ylethyl)-5-pyridin-3-yl-pyrrolidine-2,3-dione] | > 43.7 |
| Cc1nc2c(C)cccn2c1C(=O)C1C(=O)C(=O)N(CCN2CCOCC2)C1c1cccs1 (stereo not given) [(4E)-4-[(2,8-dimethyl-3-imidazo[1,2-a]pyridinyl)-hydroxymethylidene]-1-[2-(4-morpholinyl)ethyl]-5-thiophen-2-ylpyrrolidine-2,3-dione] | > 43.7 |
| COc1cccc(C(=O)C2C(=O)C(=O)N(Cc3cccnc3)C2c2ccco2)c1 (stereo not given) [(4Z)-5-(2-furanyl)-4-[hydroxy-(3-methoxyphenyl)methylidene]-1-(3-pyridinylmethyl)pyrrolidine-2,3-dione] | > 43.7 |
| CC1=NC(C)=C(C#N)C(c2ccc3ncccc3c2)C1C#N (stereo not given) | > 43.7 |
| COc1cccc2cc(C(=O)C3C(=O)C(=O)N(Cc4ccco4)C3c3cccnc3)oc12 (stereo not given) [1-(2-furanylmethyl)-4-hydroxy-3-[(7-methoxy-2-benzofuranyl)-oxomethyl]-2-(3-pyridinyl)-2H-pyrrol-5-one] | > 43.7 |
| Cc1ccc(C2C(C(=O)c3ccc(Br)cc3)C(=O)C(=O)N2Cc2ccco2)o1 (stereo not given) [(4Z)-4-[(4-bromophenyl)-hydroxy-methylene]-1-(2-furfuryl)-5-(5-methyl-2-furyl)pyrrolidine-2,3-quinone] | > 43.7 |
| O=C1C(=O)N(c2ncccn2)C(c2ccc(Cl)cc2)C1C(=O)c1ccco1 (stereo not given) [2-(4-chlorophenyl)-3-(furan-2-carbonyl)-4-hydroxy-1-pyrimidin-2-yl-2H-pyrrol-5-one] | > 43.7 |
| O=C1C(=O)N(CCCN2CCOCC2)C(c2ccccn2)C1C(=O)c1cc2ccccc2o1 (stereo not given) [3-(1-benzofuran-2-carbonyl)-4-hydroxy-1-(3-morpholin-4-ylpropyl)-2-pyridin-2-yl-2H-pyrrol-5-one] | 39.7 |
| O=C1C(=O)N(Cc2ccccc2)C(c2ccco2)C1C(=O)c1ccco1 (stereo not given) [1-Benzyl-4-(furan-2-carbonyl)-5-furan-2-yl-3-hydroxy-1,5-dihydro-pyrrol-2-one] | 8.1 |
| COC(=O)c1[nH]c(C)c(C(=O)C2C(=O)C(=O)N(CCN3CCOCC3)C2c2cccnc2)c1C (stereo not given) [4-[(E)-hydroxy-[1-[2-(4-morpholinyl)ethyl]-4,5-dioxo-2-(3-pyridinyl)-3-pyrrolidinylidene]methyl]-3,5-dimethyl-1H-pyrrole-2-carboxylic acid methyl ester] | 13.6 |
| Cc1ccc(C2C(C(=O)c3cnn(-c4ccccc4)c3C)C(=O)C(=O)N2CCN2CCOCC2)o1 (stereo not given) [(4Z)-4-[hydroxy-(5-methyl-1-phenyl-4-pyrazolyl)methylidene]-5-(5-methyl-2-furanyl)-1-[2-(4-morpholinyl)ethyl]pyrrolidine-2,3-dione] | 15.2 |
| CCN(CC)c1ccc(C=NC(C#N)C(=N)C#N)cc1 (stereo not given) [SMR000023871] | > 43.7 |
| COCc1cc(C2C(C(=O)c3ccco3)C(=O)C(=O)N2CCOCCO)ccc1O (stereo not given) [3-(furan-2-carbonyl)-4-hydroxy-1-[2-(2-hydroxyethoxy)ethyl]-2-[4-hydroxy-3-(methoxymethyl)phenyl]-2H-pyrrol-5-one] | 19.4 |
| O=C1C(=O)N(c2ncccn2)C(c2ccc(Cl)c(Cl)c2)C1C(=O)c1ccco1 (stereo not given) [2-(3,4-dichlorophenyl)-3-(furan-2-carbonyl)-4-hydroxy-1-pyrimidin-2-yl-2H-pyrrol-5-one] | > 43.7 |
| COc1ccc(C2C(C(=O)c3ccco3)C(=O)C(=O)N2Cc2cccnc2)cc1OC (stereo not given) [2-(3,4-dimethoxyphenyl)-3-(furan-2-carbonyl)-4-hydroxy-1-(pyridin-3-ylmethyl)-2H-pyrrol-5-one] | > 43.7 |
| COCCCN1C(=O)C(=O)C(C(=O)c2ccccc2)C1c1ccc2c(c1)OCO2 (stereo not given) [(4E)-5-(1,3-benzodioxol-5-yl)-1-(3-methoxypropyl)-4-[oxidanyl(phenyl)methylidene]pyrrolidine-2,3-dione] | 19.4 |
